Patent US12642809B2, “Fucosylation and immune modulation in cancer” (H. LEE MOFFITT CANCER CENTER AND RESEARCH INSTITUTE, INC., priority 2019, dated 2026)

Tested on: HLA-DRB1
Assay: qRT-PCR and immunoblot of HLA-DRB1 in melanoma cells
Type: cell-based, human
Conditions: 250 μM, panel of melanoma cell lines
Procedure: Cells were lysed on ice in RIPA lysis buffer (25 mM Tris-HCl pH 7.6, 150 mM NaCl, 5 mM EDTA, 1% NP-40 or 1% Triton X-100, 1% sodium deoxycholate, 0.1% SDS in diH2O+protease and phosphatase inhibitors (ThermoFisher Scientific (Waltham, MA)), briefly sonicated, pelleted, and the resulting lysates were normalized by protein concentration using DC assay (BioRad Laboratories, (Hercules, CA)). The indicated samples were subjected to (12%) SDS-PAGE and immunoblot analysis using the indicated antibodies. Immunoblot imaging and analysis was performed using either an Odyssey FC scanner and ImageStudio (LiCor Biosciences, Lincoln, NE) or film.
RNA from cells subjected to the indicated treatments was extracted using Gene Elute Mammalian Total RNA Extraction System (Millipore Sigma (St. Louis, MO)). RNA was reversed transcribed to cDNA using High-Capacity cDNA Reverse Transcription Kit (ThermoFisher Scientific (Waltham, MA)). qRT-PCR analysis was performed using FastStart Universal SYBR Green Master Mix (Rox) (Roche Diagnostics, (Indianapolis, IN)) using a BioRad CFX96 Real-time system (BioRad Laboratories, (Hercules, CA)). The qRT-PCR cycles used were as follows: 95° C. for 10 min, 35 cycles of 95° C. for 15 seconds, 55° C. for 60 seconds, and 72° C. for 30 seconds. Expression of the indicated genes was normalized to histone H3A expression. […]

C[C@H](O)[C@@H](O)[C@@H](O)[C@H](O)C=O [L-fucose]
HLA-DRB1 mRNA and protein levels: neither HLA-DRB1 mRNA nor protein levels were altered
